One assay concerns Smad2/P-Smad2. In words: Western blot of P-Smad2/Smad2. It is filed as cell-based, human. Conditions: C8161, 10 nM, 24 h, relative to β-actin, against control. How it is done:
Cells at 80% confluence were rinsed with PBS, harvested by scrapping into a modified RIPA buffer plus protease inhibitor cocktail using 100 μL buffer per 1 × 10^6 cells. After sonication and centrifugation, the protein concentrations in the supernatants were determined using a BCA assay (Thermo Fisher Scientific). […] Nodal was detected using a mouse monoclonal anti-Nodal antibody (sc-373910; Santa Cruz; 1 μg/ml in 20 mM Tris/150 mM NaCl/0.1% [w/v] Tween 20, pH 7.4 [TBST] plus 5% BSA) followed by an anti-mouse plus horseradish peroxidase (HRP) secondary antibody (NXA931; GE Healthcare; 1 μg/ml in TBST plus 5% BSA) and enhanced chemiluminescence (ECL; GE Healthcare). Smad2 was detected using a rabbit polyclonal anti-Smad2/3 antibody (07-408; Millipore; 1 μg/ml in TBST plus 5% BSA) followed by an anti-rabbit plus HRP secondary antibody (NA934V; GE Healthcare; 1 μg/ml in TBST plus 5% BSA) and ECL. […] To assess relative changes in protein expression, the exposed films were digitized using a ChemiDoc XRS imager (Bio-Rad Laboratories) and the relative amount of protein determined against the untreated control cells normalized to a value of 1.0 using the imager’s Quantity One software package (Bio-Rad Laboratories) and corrected for loading of protein into each lane against the β-actin protein measured in the control lane.
(In western blotting, separated proteins are transferred to a membrane and probed.)

The subject of another assay is OVCAR-3. Description: NCI 60 cytotoxicity screening. Conditions: Homo sapiens; OVCAR-3, Ovarian. The class given is cell-based.
The subject of the next assay is NCI-H23. Description: NCI 60 cytotoxicity screening. It is filed as cell-based. As to conditions: Homo sapiens; NCI-H23, NSCLC.
A further assay has as its target Renin receptor (ATP6IP2) (Homo sapiens, UniProt O75787). Description: Surface plasmon resonance (Biacore). The class given is binding. Conditions: ATP6IP2, SPR. In general terms: In SPR one partner is held on a chip, and binding of the other changes the refractive index at the surface.
The subject of another assay is MCF7. Description: NCI 60 cytotoxicity screening. As to conditions: Homo sapiens; MCF7, Breast. It is filed as cell-based.
Another assay has as its target Integrin beta-2 (CD18) (Homo sapiens, UniProt P05107). In words: Surface plasmon resonance (Biacore). The class given is binding. Conditions: CD18, SPR.
In the next assay the test system is HCT-15. Description: NCI 60 cytotoxicity screening. The class given is cell-based. As to conditions: Homo sapiens; HCT-15, Colon.
Another assay has as its system CAKI-1. In words: NCI 60 cytotoxicity screening. The class given is cell-based. As to conditions: Homo sapiens; CAKI-1, Renal.
In a further assay the target is T1, Catenin α2 (Homo sapiens, UniProt P26232).
T1 sequence (P26232 1-953): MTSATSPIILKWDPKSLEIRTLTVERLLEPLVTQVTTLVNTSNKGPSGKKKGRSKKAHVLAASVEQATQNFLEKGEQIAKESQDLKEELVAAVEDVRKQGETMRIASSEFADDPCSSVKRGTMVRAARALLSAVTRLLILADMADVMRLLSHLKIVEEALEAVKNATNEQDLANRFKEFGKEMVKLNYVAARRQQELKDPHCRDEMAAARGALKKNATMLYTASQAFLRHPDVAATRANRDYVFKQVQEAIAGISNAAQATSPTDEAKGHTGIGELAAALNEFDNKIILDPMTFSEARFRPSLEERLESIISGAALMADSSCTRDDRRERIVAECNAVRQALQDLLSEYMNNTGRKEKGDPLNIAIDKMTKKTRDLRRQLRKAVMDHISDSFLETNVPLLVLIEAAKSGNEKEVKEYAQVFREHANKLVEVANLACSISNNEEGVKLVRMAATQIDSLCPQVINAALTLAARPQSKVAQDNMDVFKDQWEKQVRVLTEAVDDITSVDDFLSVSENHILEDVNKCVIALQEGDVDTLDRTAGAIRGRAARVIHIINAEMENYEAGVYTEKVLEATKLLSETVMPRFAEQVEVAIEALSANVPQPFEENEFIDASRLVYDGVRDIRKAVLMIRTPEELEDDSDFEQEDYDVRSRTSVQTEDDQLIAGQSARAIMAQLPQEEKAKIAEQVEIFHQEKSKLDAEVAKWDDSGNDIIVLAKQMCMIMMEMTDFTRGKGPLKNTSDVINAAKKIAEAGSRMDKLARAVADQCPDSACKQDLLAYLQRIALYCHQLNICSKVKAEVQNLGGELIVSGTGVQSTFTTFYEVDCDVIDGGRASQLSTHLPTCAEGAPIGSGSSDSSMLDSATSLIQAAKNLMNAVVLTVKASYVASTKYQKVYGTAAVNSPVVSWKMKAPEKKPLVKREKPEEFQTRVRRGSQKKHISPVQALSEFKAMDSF
Description: Surface plasmon resonance (Biacore). Conditions: Catenin α2, SPR. It is filed as binding.

Another assay has as its system IGROV1. In words: NCI 60 cytotoxicity screening. It is filed as cell-based. As to conditions: Homo sapiens, IGROV-1; IGROV1, Ovarian.
For a further assay, the system named is UACC-257. In words: NCI 60 cytotoxicity screening. It is filed as cell-based. Conditions: Homo sapiens; UACC-257, Melanoma.
In the next assay the test system is SK-OV-3. Description: NCI 60 cytotoxicity screening. The class given is cell-based. As to conditions: Homo sapiens; SK-OV-3, Ovarian.

Molecules are shown by their SMILES.

Chain of Integrin beta-2 (CD18) (P05107 23-769): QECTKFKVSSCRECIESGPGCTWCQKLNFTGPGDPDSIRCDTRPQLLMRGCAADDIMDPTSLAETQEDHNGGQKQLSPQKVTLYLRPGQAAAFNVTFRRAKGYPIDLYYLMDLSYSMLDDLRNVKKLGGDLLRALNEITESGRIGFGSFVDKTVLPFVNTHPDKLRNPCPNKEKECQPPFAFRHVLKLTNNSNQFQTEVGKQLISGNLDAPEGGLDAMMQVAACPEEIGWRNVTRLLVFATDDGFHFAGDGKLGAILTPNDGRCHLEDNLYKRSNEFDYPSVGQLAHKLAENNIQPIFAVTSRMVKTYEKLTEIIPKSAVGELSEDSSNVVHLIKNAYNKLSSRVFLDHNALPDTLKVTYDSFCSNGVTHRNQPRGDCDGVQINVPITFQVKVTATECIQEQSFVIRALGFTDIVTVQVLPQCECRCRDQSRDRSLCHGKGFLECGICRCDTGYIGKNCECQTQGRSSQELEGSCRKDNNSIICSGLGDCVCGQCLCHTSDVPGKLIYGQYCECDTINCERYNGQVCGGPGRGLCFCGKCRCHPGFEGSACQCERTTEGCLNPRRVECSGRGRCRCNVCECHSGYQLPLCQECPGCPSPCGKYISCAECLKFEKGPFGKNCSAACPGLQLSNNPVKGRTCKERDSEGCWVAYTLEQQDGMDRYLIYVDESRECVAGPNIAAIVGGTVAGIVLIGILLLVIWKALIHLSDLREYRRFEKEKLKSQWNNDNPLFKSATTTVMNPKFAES
Chain of Renin receptor (ATP6IP2) (O75787 17-350): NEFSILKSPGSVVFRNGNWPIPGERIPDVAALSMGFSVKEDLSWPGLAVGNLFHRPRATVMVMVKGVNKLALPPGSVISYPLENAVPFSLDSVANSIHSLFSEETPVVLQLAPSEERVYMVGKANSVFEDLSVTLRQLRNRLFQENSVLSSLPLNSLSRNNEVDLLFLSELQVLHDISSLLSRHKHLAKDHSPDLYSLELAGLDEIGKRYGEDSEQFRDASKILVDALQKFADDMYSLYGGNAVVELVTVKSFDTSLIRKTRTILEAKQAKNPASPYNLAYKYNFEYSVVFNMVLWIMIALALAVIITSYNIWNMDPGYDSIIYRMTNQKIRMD

Turning to `COc1ccc2[nH]c(-c3cccc(F)c3)cc(=O)c2c1OP(=O)(O)O` [CVM-1118], in the assay on Smad2/P-Smad2, the “reduction in the ratio of P-Smad2 to Smad2 protein level” value came out at 76%.
With `COc1ccc2[nH]c(-c3cccc(F)c3)cc(=O)c2c1O` [CVM-1125], the GI50 in the assay with OVCAR-3 was 0.0191 µM; with NCI-H23 it was 0.0345 µM; with MCF7, 0.0299 µM; in the assay on HCT-15, 0.0355 µM; in the assay with CAKI-1, 0.0467 µM; in the assay with IGROV1 it was 0.027 µM. Further, the GI50 was 0.0337 µM in the assay with UACC-257 and 0.0356 µM with SK-OV-3. In addition, the “Dissociation (kd)” value is 0.021 s⁻¹ at Renin receptor (ATP6IP2), 1.08e-05 s⁻¹ at Integrin beta-2 (CD18) and “No dose dependent interaction” on Catenin α2. Besides, the kon at Renin receptor (ATP6IP2) (read-out: Association (ka)) came out at 122000 M⁻¹ s⁻¹; at Integrin beta-2 (CD18) (read-out: Association (ka)), 14.4 M⁻¹ s⁻¹. The Kd at Renin receptor (ATP6IP2) (read-out: KD (kd/ka)) stood at 0.173 µM; at Integrin beta-2 (CD18) (read-out: KD (kd/ka)), 0.748 µM. For the same compound, the “Association (ka)” value at Catenin α2 is given as “No dose dependent interaction”. Further, the “KD (kd/ka)” value at Catenin α2 is given as “No dose dependent interaction”.

For orientation: GI50 means the concentration that inhibits growth by half. Read a low GI50 as more potent growth inhibition.

For the origin of these results see paper PMC10283505, “CVM-1118 (foslinanib), a 2-phenyl-4-quinolone derivative, promotes apoptosis and inhibits vasculogenic mimicry via targeting TRAP1” (Pathology and Oncology Research, 2023).
